Experiment [1] relates to five Candida isolates, C. albicans K-1, C. tropicalis 98-234, C. auris B 11211, C. glabrata 4720, C. albicans SN 250. The experiment is described as follows: In vitro MIC susceptibility testing, positive control over the Candida isolates. In kind it is cell-based. The conditions noted are these: RPMI medium. As to the method:
(§1) In vitro MIC susceptibility testing. […]. Amphotericin B was used as a positive control and the MICs range were 0.25-1.5 μg/mL. Six untreated media controls were included on each plate. The plates were incubated at 33° C. for 72 h. The MICs were determined as the lowest concentration that inhibited visible growth. The MICs were read at 24, 48, and 72 hours, respectively. […]

The subject of another experiment is C. albicans. Briefly: In vitro MIC susceptibility testing, broth microdilution. In kind it is cell-based, Candida albicans. Here is the method:
as §1

In a further experiment the test system is C. auris. The description is as above. The arrangement: unit: ug/mL. In kind it is cell-based, Candida auris. As to the method:
as §1

Another experiment deals with C. tropicalis. Described as above. In kind it is cell-based. The conditions noted are these: Candida tropicalis, strain 98-234; read-out: MIC. As to the method: In vitro MIC susceptibility testing. […] The plates were incubated at 33° C. for 72 h. The MICs were determined as the lowest concentration that inhibited visible growth. The MICs were read at 24, 48, and 72 hours, respectively.

The next experiment concerns C. glabrata. The description is as above. In kind it is cell-based, Candida glabrata. The conditions noted are these: Nakaseomyces glabratus. As to the method: as §1
A further experiment concerns Aspergillus fumigatus. The experiment is described as follows: In vitro MIC susceptibility testing. In kind it is cell-based. As to the method: as §1
The next experiment concerns A. fumigatus F11628. The conditions noted are these: same Cyp51 mutant A. fumigatus strain, comparison; cited from earlier work.
Where [2] appears, read: Candida albicans, strain 98-17, read-out: MIC.
Setting [3] is: Candida albicans, strain 98-210, read-out: MIC.
Where [4] appears, read: Candida albicans, strain 580, read-out: MIC.
Setting [5] is: Candida albicans, strain K1 (K-1), read-out: MIC.
Where [6] appears, read: Candidozyma auris, strain B11104.
Setting [7] is: Candidozyma auris, strain B11203.
Setting [8] is: Candidozyma auris, strain B11211, resistant to amphotericin B, fluconazole, micafungin, read-out: MIC.
[9] abbreviates: Candidozyma auris, strain B11219.
[10] abbreviates: Candidozyma auris, strain B11220, read-out: MIC.
Setting [11] is: Candidozyma auris, strain B11221.
Where [12] appears, read: Candidozyma auris, strain B11785, read-out: MIC.
The mark [13] stands for this setting: Candidozyma auris, strain B11799, read-out: MIC.
Where [14] appears, read: Candidozyma auris, strain B11801, read-out: MIC.
Setting [15] is: Candidozyma auris, strain B11804, read-out: MIC.
[16] abbreviates: positive controls, A. fumigatus F11628, read-out: MIC.

≈ marks a conversion by molar mass, not a printed value. Read-outs that look alike come from different tables or passages of the source. *1 amine or outer side, *2 acyl side, *3 side chain or, on linkers, in order; H or OH if unused. Where a SMILES comes first, the peptide text is derived from it. Bridges are numbered along the chain shown (N, C = ends). [ ]: non-standard residue; d: D form. The star is where a group is joined. hTyr(3S-OH,4S-OH,3'-OSO3H) = N[C@H](C(=O)O)[C@H](O)[C@@H](O)c1ccc(O)c(OS(=O)(=O)O)c1; Orn(4R-OH,5R-OH) = O=C([C@H](C[C@@H](O)[C@@H](O)N[*:3])N[*:1])[*:2]; Pro(3S-OH,4S-Me) = C[C@H]1CN[C@H](C(=O)O)[C@H]1O; X1 = CCCCCOc1ccc(-c2cc(-c3ccc(C(=O)*)cc3)no2)cc1; Gln(3R-OH) = NC(=O)C[C@@H](O)[C@H](N)C(=O)O; Hyp = O=C(O)[C@@H]1C[C@@H](O)CN1

Molecule `C[C@@H]1[C@H](O)[C@@H](C)/C=C/C=C/C=C/C=C/C=C/C=C/C=C/[C@H](O[C@@H]2O[C@H](C)[C@@H](O)[C@H](N)[C@@H]2O)C[C@@H]2O[C@](O)(C[C@@H](O)C[C@@H](O)[C@H](O)CC[C@@H](O)C[C@@H](O)CC(=O)O[C@H]1C)C[C@H](O)[C@H]2C(=O)O` [Amphotericin B] displayed an MICs range in experiment [1] of 0.25 to 1.5 µg/mL. For the same molecule, the MIC was 0.25 µg/mL (≈ 0.271 µM) in the experiment with C. albicans (strain 98-17); 0.25 µg/mL (≈ 0.271 µM) against C. albicans (strain K1 (K-1)); 1 µg/mL (≈ 1.08 µM) in the experiment on C. auris (strain B11104); 4 µg/mL (≈ 4.33 µM) in the experiment on C. auris (strain B11203); 1.5 µg/mL (≈ 1.62 µM) against C. auris (strain B11211, resistant to amphotericin B, fluconazole, micafungin); 3 µg/mL (≈ 3.25 µM) against C. auris (strain B11219). The MIC turned out to be 0.38 µg/mL (≈ 0.411 µM) against C. auris (strain B11220); 0.38 µg/mL (≈ 0.411 µM) with C. auris (strain B11221); 1.5 µg/mL (≈ 1.62 µM) in the experiment on C. auris (strain B11785); 0.5 µg/mL (≈ 0.541 µM) against C. auris (strain B11799); 6 µg/mL (≈ 6.49 µM) with C. auris (strain B11801); 0.5 µg/mL (≈ 0.541 µM) in the experiment on C. auris (strain B11804).
Regarding `OC(Cn1cncn1)(Cn1cncn1)c1ccc(F)cc1F` [Fluconzole, fluconazole], the MIC was 16 µg/mL (≈ 52.2 µM) with C. albicans (setting [2]); 16 µg/mL (≈ 52.2 µM) in the experiment on C. albicans (setting [3]); 4 µg/mL (≈ 13.1 µM) in the experiment on C. albicans (setting [4]); 0.5 µg/mL (≈ 1.63 µM) in the experiment with C. albicans (setting [5]); above 256 µg/mL in the experiment on C. auris (setting [6]); 256 µg/mL (≈ 836 µM) against C. auris (setting [7]). Moreover, the MIC was above 256 µg/mL in the experiment on C. auris (setting [8]); above 256 µg/mL with C. auris (setting [9]); 4 µg/mL (≈ 13.1 µM) in the experiment on C. auris (setting [10]); 128 µg/mL (≈ 418 µM) against C. auris (setting [11]); 8 µg/mL (≈ 26.1 µM) in the experiment with C. auris (setting [12]); 16 µg/mL (≈ 52.2 µM) in the experiment with C. auris (setting [13]). The MIC in the experiment on C. auris (setting [14]) was found to be 16 µg/mL (≈ 52.2 µM); with C. auris (setting [15]) it was 2 µg/mL (≈ 6.53 µM); in the experiment on C. tropicalis, 32 µg/mL (≈ 104 µM).
As to `CCCCCOc1ccc(-c2cc(-c3ccc(C(=O)N[C@H]4C[C@@H](O)[C@@H](O)NC(=O)[C@@H]5[C@@H](O)[C@@H](C)CN5C(=O)[C@H]([C@H](O)CC(N)=O)NC(=O)[C@H]([C@H](O)[C@@H](O)c5ccc(O)c(OS(=O)(=O)O)c5)NC(=O)[C@@H]5C[C@@H](O)CN5C(=O)[C@H]([C@@H](C)O)NC4=O)cc3)no2)cc1` [Micafungin, micafungin] (X1-[Orn(4R-OH,5R-OH)]T[Hyp][hTyr(3S-OH,4S-OH,3'-OSO3H)][Gln(3R-OH)][Pro(3S-OH,4S-Me)]; lactam 1-C), the MIC stood at 0.016 µg/mL (≈ 0.0126 µM) against C. glabrata (strain 513); 8 µg/mL (≈ 6.3 µM) against C. glabrata (strain 729, Fks2_HS1_S663P); 4 µg/mL (≈ 3.15 µM) with C. glabrata (strain 4720, Fks2_HS1_S645P, echinocandin resistant); 0.016 µg/mL (≈ 0.0126 µM) in the experiment with C. glabrata (strain 5592); 2 µg/mL (≈ 1.57 µM) against C. glabrata (strain 14378, Fks1_HS1_S629P); 0.06 µg/mL (≈ 0.0472 µM) against C. albicans (Candida albicans, strain 98-17). For the same molecule, the MIC amounted to 0.03 µg/mL (≈ 0.0236 µM) against C. albicans (Candida albicans, strain 98-210); 0.016 µg/mL (≈ 0.0126 µM) with C. albicans (Candida albicans, strain 580); 0.03 µg/mL (≈ 0.0236 µM) against C. albicans (Candida albicans, strain K1 (K-1)); 0.25 µg/mL (≈ 0.197 µM) with C. auris (setting [6]); 0.25 µg/mL (≈ 0.197 µM) against C. auris (setting [7]); 4 µg/mL (≈ 3.15 µM) with C. auris (Candidozyma auris, strain B11211, resistant to amphotericin B, fluconazole, micafungin). Also, the MIC in the experiment with C. auris (setting [9]) came to 4 µg/mL (≈ 3.15 µM); with C. auris (Candidozyma auris, strain B11220) it was 0.12 µg/mL (≈ 0.0945 µM); against C. auris (setting [11]), 1 µg/mL (≈ 0.787 µM); against C. auris (Candidozyma auris, strain B11785) it was 0.5 µg/mL (≈ 0.394 µM); against C. auris (Candidozyma auris, strain B11799), 2 µg/mL (≈ 1.57 µM); in the experiment on C. auris (Candidozyma auris, strain B11801), 1 µg/mL (≈ 0.787 µM). Also, it took 0.5 µg/mL (≈ 0.394 µM) to inhibit growth with C. auris (Candidozyma auris, strain B11804) (MIC).
`C[C@@H](c1nc(-c2ccc(C#N)cc2)cs1)[C@](O)(Cn1cncn1)c1cc(F)ccc1F` [Isavuconazole]: in the experiment with Aspergillus fumigatus (setting [16]), the MIC was 8 µg/mL (≈ 18.3 µM).
Turning to `CC[C@@H]([C@H](C)O)n1ncn(-c2ccc(N3CCN(c4ccc(OC[C@@H]5CO[C@@](Cn6cncn6)(c6ccc(F)cc6F)C5)cc4)CC3)cc2)c1=O` [Posaconazole, posaconazole], the minimal inhibitory concentration (MIC) with C. albicans (setting [2]) turned out to be 0.12 µg/mL (≈ 0.171 µM); in the experiment on C. albicans (setting [3]), 0.12 µg/mL (≈ 0.171 µM); with C. albicans (setting [4]), 0.06 µg/mL (≈ 0.0856 µM); in the experiment with C. albicans (setting [5]), 0.03 µg/mL (≈ 0.0428 µM); with C. auris (Candidozyma auris, strain B11104, read-out: MIC) it was 0.5 µg/mL (≈ 0.713 µM); in the experiment on C. auris (Candidozyma auris, strain B11203, read-out: MIC), 0.12 µg/mL (≈ 0.171 µM). Moreover, the minimal inhibitory concentration (MIC) in the experiment on C. auris (setting [8]) was 0.5 µg/mL (≈ 0.713 µM); with C. auris (Candidozyma auris, strain B11219, read-out: MIC), 0.5 µg/mL (≈ 0.713 µM); with C. auris (setting [10]) it was 0.06 µg/mL (≈ 0.0856 µM); with C. auris (Candidozyma auris, strain B11221, read-out: MIC) it was 0.5 µg/mL (≈ 0.713 µM); with C. auris (setting [12]), 0.016 µg/mL (≈ 0.0228 µM); with C. auris (setting [13]), 0.06 µg/mL (≈ 0.0856 µM). In addition, the MIC in the experiment on C. auris (setting [14]) was determined as 0.12 µg/mL (≈ 0.171 µM); in the experiment on C. auris (setting [15]) it was 0.03 µg/mL (≈ 0.0428 µM); with Aspergillus fumigatus (setting [16]), 8 µg/mL (≈ 11.4 µM); in the experiment with Aspergillus fumigatus (strain 293, read-out: MIC), 0.5 µg/mL (≈ 0.713 µM); in the experiment with Aspergillus fumigatus (strain F14532, Cyp51 M220T) it was 1 µg/mL (≈ 1.43 µM); with Aspergillus fumigatus (strain F16216, Cyp51 L98H + TR) it was 2 µg/mL. Besides, the “dose required to achieve 1-log kill” value in the experiment on A. fumigatus F11628 is 150 mg/kg/24 h.
